This note sets out measurements from patent US9006221B2, “Method of modulating ship activity” (H. Lee Moffitt Cancer Center and Reserach Institute, Inc., priority 2008, dated 2015).

Molecules are shown by their SMILES.

One test relates to KG1 cells. The test can be described thus: Apoptosis of KG1 cells (Western blot, Annexin V/PI FACS). The format is cell-based, human. How it is done: (A) SHIP1 expression in KG1 and MG63 cells was determined by Western blotting (top). Membranes were reprobed with antibodies against b-actin to confirm equal loading (lower panel). One representative blot of 2 individual experiments is shown. (B) KG1 and MG63 cells were plated in duplicate in 96 well plates, and treated for 36 hours with increasing concentrations of the 3α-aminocholestane. Cell viability was assessed by MTT assay. Results represent the mean of three individual experiments. (C) KG1 cells were treated with increasing concentrations of 3α-aminocholestane for 36 hours and hallmarks of apoptosis were identified in cell lysates by Western Blot analysis. Membranes were probed with antibodies against PARP and cleaved PARP (cPARP, upper panel) and cleaved Caspase 3 (cCaspase 3, middle panel). Equal protein loading was confirmed by reprobing the blots with anti-b-actin antibodies (lower panel). A representative example of 2 independent experiments is shown. (D) KG1 cells were treated with increasing concentrations of 3α-aminocholestane, and the percentage of AnnexinV and PI positive cells was determined by FACS analysis. A representative example of 2 individual experiments is shown.
It was a concern that SHIP1 inhibitors might potentially enhance the survival and growth of blood cell cancers. Conversely, as discussed above, SHIP1 inhibition could also […] Akt activation and therefore might also antagonize the survival of malignant blood cells. The two possibilities were tested by treating the AML cell line (KG-1) that expresses SHIP1 (FIG. 17a) with 3α-aminocholestane. […]
Preparation of cell lysates and Western blotting: Cells were counted, centrifuged and resuspended in Laemmli sample buffer. […]
Annexin V staining Annexin V/Propidium Iodide (PI) staining was performed using the Annexin V-FITC apoptosis detection kit from BD Pharmingen (Sharon, Mass.) per the manufacturer's instructions. […] Fluorescence was determined by flow cytometry (LSR II, Becton Dickinson Medical Systems, Sharon, Mass.).

The test system of test [1] is FoxP3+CD4+CD25+ Treg cells. Kind of test: FACS quantitation of FoxP3+CD4+CD25+ Treg cells in spleen and lymph node of treated mice. The following applies: daily injection at 125 μM for 7 days. The format is in vivo, mouse. How it is done: FACS quantitation of Mac1^+Gr1^+ Myeloid-Derived Suppressor Cells (Mac1^+Gr1^+ MySC) (A,B) and FoxP3^+CD4^+CD25^+ Treg cells (C,D) in spleen and lymph node of C57BL6 mice treated with NSC13480, vehicle or non-manipulated mice (Normal). ***p<0.001; *p<0.05.
In addition, both donor and host Treg cells can also limit or abrogate GvHD. […] (Paraiso, K. H., et al. 2007. J Immunol 178:2893). […] Adult mice were treated for 7 days with a daily injection of NSC13480 at 125 μM. The frequency of MySC and Treg cells was tested in the spleens of mice treated with NSC13480, the vehicle used for delivery of NSC 13480 and normal, untreated mice.
Antibody staining and flow cytometry (Examples 1-6): Anti-CD16/32 was co-incubated with the samples to block Fc receptor binding. Antibodies used for staining included: NK1.1 (PK136); CD3e (145-2C11); Ly49G2 (4D11); Gr-1 (RB6-8C5); Mac-1(M1/70); CD11c (HL3); CD4 (GK1.5); CD25 (PC61) and were obtained from BD Pharmingen (San Jose, Calif.). FoxP3 (FJK-16s) was purchased from eBioScience (San Diego, Calif.). All samples were acquired on a FACSCalibur and analyzed using FlowJo8.7.1. For viable staining, dead cells were excluded from the analysis following cytometer acquisition of data by exclusion of the 7AAD dye. […]

Regarding `CC(C)CCC[C@@H](C)[C@H]1CC[C@H]2[C@@H]3CC[C@H]4C[C@H](N)CC[C@]4(C)[C@H]3CC[C@]12C` [NSC23922, (3R,5S,8R,9S,10S,13R,14S,17R)-10,13-dimethyl-17-[(2R)-6-methylheptan-2-yl]-2,3,4,5,6,7,8,9,11,12,14,15,16,17-tetradecahydro-1H-cyclopenta[a]phenanthren-3-amine], the “frequency of AnnexinV+ cells” value with KG1 cells (KG1, 36 hours, FACS) was “increased frequency”. Moreover, the “cleavage of PARP and Caspase 3” value with KG1 cells (KG1, 36 hours, Western blot) was “increased cleavage”. The “activation of Akt/PKB” value in the test on KG1 cells (KG1, Western blot) is “decreased activation”.

Take `OC(c1cc(-c2ccccc2)nc2c1ccc1ccccc12)C1CCCCN1` (centres unmarked) [NSC13480, (2-phenylbenzo[h]quinolin-4-yl)-piperidin-2-ylmethanol]: the “number of Treg cells” value in test [1] (lymph node) and in test [1] (spleen) was “increased significantly” throughout.
